In patent US20180200257A1, “METHODS FOR THE TREATMENT OF INFLAMMATORY DISORDERS” (Galapagos NV, priority 2015, published 2018):

Key:
[1] = test system: Subjects With Active Crohn's Disease With Evidence of Mucosal Ulceration; experiment: Study 3 - CRP levels (pharmacodynamics); assay type: in vivo, human; details: 200 mg; week 10; LOCF
Excerpt: Double-Blind, Randomized, Placebo-Controlled, Multi-Centre Study to Investigate the Efficacy and Safety of Compound 1 in Subjects With Active Crohn's Disease With Evidence of Mucosal Ulceration. This is a double-blind, randomized, placebo-controlled, multi-centre Phase 2 study to investigate the efficacy and safety of Compound 1 administered once daily for the treatment of active CD with evidence of mucosal ulceration. The pharmacokinetics (including a PK substudy) and pharmacodynamics of Compound 1 and metabolite in CD will also be characterised. A total of 180 eligible subjects will be randomized to receive Compound 1 or placebo in addition to their stable background treatment (eg, corticosteroids, aminosalicylates, or CD-related antibiotics). The study will consist of 2 parts, with total treatment duration of 20 weeks. Randomization in Part 1 will be stratified according the subject's previous anti-TNF exposure/response, CRP level at Screening, and oral corticosteroid use at visit Day −1. After the first 10 weeks of treatment in Part 1, patients will be re-randomized for Part 2 as shown in the diagram below and will be stratified according to the subject's clinical response, previous anti-TNF exposure/response, and oral corticosteroid use at visit Day -1. [table] CRP determination is available at Quest Diagnostics, Clinical Trials, Quest House, 125-135 Staines Road, Hounslow, Middlesex, TW3 3JB, United Kingdom under Catalogue n#86140. The determination of CRP is made using Immunoturbidimetric assay for the in vitro quantitative determination of CRP in human serum and plasma on Roche/Hitachi cobas c systems, wherein human CRP agglutinates with latex particles coated with monoclonal anti-CRP antibodies. The aggregates are determined turbidimetrically (Eda et al., 1998; Price et al., 1987). Human serum and plasma samples CRP determination was done on a Roche/Hitachi Cobas c 301 c 501/502 system which automatically calculate the analyte concentration of each sample. Samples containing precipitates are centrifuged before performing the assay. CRP levels are determined as previously described in section 3.6

[2] = test system: subjects with moderately to severely active RA who have an inadequate response to methotrexate (MTX); experiment: Study 2 (monotherapy) - Subject VAS mean changes (ACR patient assessment); assay type: in vivo, human; details: LOCF, 12 weeks results
Method: The scale is 100 mm, the decrease in mm is shown. […] (dotted line), 100 mg q.d. (dashed line) or 200 mg q.d. (dark solid line). The results shown in the figures are calculated using Last-Observation-Carried-Forward (LOCF), which handles missing data by assigning the value recorded at the patient's last visit to all subsequent missed visits.
Randomized, double-blind, placebo-controlled, multicenter, phase IIb dose finding study of Compound 1 (dosed as a [Compound 1:HCl:3H2O]) administered for 24 weeks as monotherapy to subjects with moderately to severely active rheumatoid arthritis who have an inadequate response to methotrexate alone
Double-blind, placebo-controlled, monotherapy study in subjects with moderately to severely active RA who have an inadequate response to methotrexate (MTX) (oral or parenteral).
280 subjects randomized to one of 3 doses of Compound 1 (dosed as a [Compound 1:HCl:3H2O]) or to placebo, given once daily (q.d.).
Twelve weeks of treatment with Compound 1 (dosed as a [Compound 1:HCl:3H2O]) at 50 mg, 100 mg, or 200 mg q.d.; or placebo. At Week 12, all subjects on placebo and the subjects on the 50 mg dose who have not achieved 20% improvement in swollen joint count (SJC66) and tender joint count (TJC68) will be assigned to 100 mg q.d. in a blinded fashion and will continue treatment until Week 24. Subjects in the other groups will maintain their randomized treatment until Week 24.
Firstly, the patient is asked to make a vertical mark on a 100 mm Visual Analog Scale (VAS) corresponding to their general health or global disease activity on a touch screen to measure the VAS value, which is used in the formula below.
The American College of Rheumatology (ACR) composite score, which evaluates clinical improvement relative to an initial assessment, is a commonly accepted efficacy end point for clinical trials in patients with rheumatoid arthritis. The ACR score correspond to a percentage improvement in pre-set parameters, and therefore measures the evolution of the disease in a patient. For example, ACR20 denotes at least 20% improvement in tender and swollen joint counts and in three of the following end points: global assessment by the patient, global assessment by the doctor, C reactive protein (CRP), patient's pain Visual Analogue Scale and Health Assessment Questionnaire Score. The number of swollen joints, ESR and CRP correlate with radiographic progression of joint damage, whereas tender joint counts, as well as global assessments by doctors and patients, and patients' reports of pain, are sensitive to change in clinical outcomes. Physical function, as assessed by the Health Assessment Questionnaire Score, is a potent predictor of the risk of disability in rheumatoid arthritis (Felson and American College of Rheumatology Committee to Reevaluate Improvement Criteria, 2007; Felson et al., 1993).

In the case of `O=C(Nc1nc2cccc(-c3ccc(CN4CCS(=O)(=O)CC4)cc3)n2n1)C1CC1` [Compound 1, cyclopropanecarboxylic acid {5-[4-(1,1-dioxo-thiomorpholin-4-ylmethyl)-phenyl]-[1,2,4]triazolo[1,5-a]pyridin-2-yl}-amide], the “Serum CRP mean, % CFB” value [1] is reported as 53%, the “Serum CRP mean, CFB” value [1] is reported as -1.0 mg/L and the “Serum CRP median, % CFB” value [1] is reported as −10%. The “Serum CRP median, CFB” value [1] was -0.4 mg/L, the “Serum CRP normalizing high to normal (<0.80 mg/dL), % subjects normalizing” value [1] was 27% and the “Subject VAS mean changes (ACR patient assessment)” value (“Subject VAS mean changes” below) ([2]; 50 mg q.d., week 0) was 0.0%. The “Subject VAS mean changes” value ([2]; 50 mg q.d., week 1) was −12.3%, the “Subject VAS mean changes” value ([2]; 50 mg q.d., week 2) was −17.3% and the “Subject VAS mean changes” value ([2]; 50 mg q.d., week 4) was −19.3%. The “Subject VAS mean changes” value ([2]; 50 mg q.d., week 8) was −23.6%, the “Subject VAS mean changes” value ([2]; 50 mg q.d., week 12) was −27.4% and the “Subject VAS mean changes” value ([2]; 100 mg q.d., week 0) was 0.0%. For the same molecule, the “Subject VAS mean changes” value ([2]; 100 mg q.d., week 1) was −12.2%, the “Subject VAS mean changes” value ([2]; 100 mg q.d., week 2) was −17.2% and the “Subject VAS mean changes” value ([2]; 100 mg q.d., week 4) was −21.3%. The “Subject VAS mean changes” value ([2]; 100 mg q.d., week 8) was −29.2%, the “Subject VAS mean changes” value ([2]; 100 mg q.d., week 12) was −29.8% and the “Subject VAS mean changes” value ([2]; 200 mg q.d., week 0) was 0.0%. The “Subject VAS mean changes” value ([2]; 200 mg q.d., week 1) was −14.8%, the “Subject VAS mean changes” value ([2]; 200 mg q.d., week 2) was −19.9% and the “Subject VAS mean changes” value ([2]; 200 mg q.d., week 4) was −25.0%. For the same molecule, the “Subject VAS mean changes” value ([2]; 200 mg q.d., week 8) was −30.3% and the “Subject VAS mean changes” value ([2]; 200 mg q.d., week 12) was −28.8%.
